Results published in patent US9364496B2 (ONCOGENEX TECHNOLOGIES INC., priority 2013, dated 2016).
Values joined by “and” are separate entries in the source; they are usually repeats but may differ in a detail not shown here. Equal values may be shown once. Marks after values point to notes of the source that are not given here. Oligonucleotides are written 5' to 3', each unit as a sugar letter and its base; * is a phosphorothioate linkage, no mark a phosphodiester; rarer units and linkages stand in square brackets, end groups in braces. Plain capitals give the bases only. e = 2'-O-(2-methoxyethyl) (MOE); [5mC] = 5-methylcytosine; d = 2'-deoxy (DNA)

Test system: RPMI 8226 (human myeloma) xenograft
Assay: In vivo activity of custirsen with Velcade, RPMI 8226 xenograft (Example 14)
Settings: for % of baseline / Δ %: weight
Procedure: The cells were implanted subcutaneously into female SCID mice with 7×10^6 cells inoculum.
Tumors and body weights were measured weekly until termination of the study on day 71. Response to treatment was evaluated for tumor growth inhibition (TGI) and tumor growth delay (TGD).
70 CB.17 SCID female mice, 4-6 weeks old, 16-20 grams, obtained from Harlan animal breeding center.
Sample from the cell suspension was taken for counting (0.3 ml in duplicates for CEDEX) before spun down. Cell viability was 85.6% and live cell concentration was 167×10^5 cells/ml. The pellet was resuspended in HBSS to a final volume of 8 ml.
Tumors were implanted subcutaneously with RPMI-8226 cells into the right flank of the mouse on Day 0. Each animal received a s.c. injection 7×10^6 cells in 0.1 ml suspension. On day 20, mice were sorted by the optimal tumor volume ([…]) and were allocated into 5 groups of 10 mice. Mice were individually tagged and their tumor volume and body weight were monitored weekly during the study. Tumor size was measured by caliper and calculated using the formula: […]
The treatment started on […] (0.2 ml per 20 grams v/w) and continued till day 52, after which the remaining mice were left for observation until day 71.

[1] = Custirsen 40 mg/kg ip qd*5, twk, day 51
[2] = OGX 40 ip qd*5, twk, Day 48, group mean
[3] = OGX 40 ip qd*5, twk, Day 48, individual mice, listed as OGX
[4] = OGX 40 ip qd*5, twk, Day 51, group mean
[5] = OGX 40 ip qd*5, twk, Day 51, individual mice, listed as OGX
[6] = OGX 40 ip qd*5, twk, Day 58, individual mice, listed as OGX
[7] = OGX 40 ip qd*5, twk, Day 63, individual mice, listed as OGX
[8] = OGX 40 ip qd*5, twk, earlier day (day not given), group mean
[9] = OGX 40 ip qd*5, twk, earlier day (day not given), group mean, tumor
[10] = OGX 40 ip qd*5, twk, earlier day (day not given), individual mouse, listed as OGX
[11] = OGX 40 ip qd*5, twk, earlier day (day not given), individual mouse, tumor, listed as OGX
[12] = OGX 40 ip qd*5, twk, group Mean, n 9
[13] = OGX 40 ip qd*5, twk, group Mean, n 9, vs Day 20
[14] = OGX 40 ip qd*5, twk, group Mean, n 10

Question: How did the “Max BW (mean) reduction” value (Custirsen 40 mg/kg ip qd*5, twk, day 34) turn out when “Custirsen: anti-clusterin antisense oligonucleotide CAGCAGCAGAGTCTTCATCAT, phosphorothioate backbone, 2′-O-methoxyethyl at nucleotides 1-4 and 18-21, 5-methylcytosines at 1, 4, 19 (antisense e[5mC]*eA*eG*e[5mC]*dA*dG*dC*dA*dG*dA*dG*dT*dC*dT*dT*dC*dA*eT*e[5mC]*eA*eT; listed as Homo sapiens)” was run?
Answer: Its value is −4.7%.

Question: And the “% TGI day 51” value [1]?
Answer: Its value is 46* %.

Question: And the “No. of CR” value [1]?
Answer: The value was 0.

Question: And the “No. of PR” value [1]?
Answer: The value was 0.

Question: And the “No. of TRD” value [1]?
Answer: Its value is 1.

Question: And the “No. og nTRD” value [1]?
Answer: Its value is 0.

Question: And the “Δ mean tumor volume, (mean ± se)” value [1]?
Answer: Its value is 667 ± 87.

Question: And the “% TGI day 51” value (Custirsen 40 mg/kg ip qd*5, twk, day 51, listed as Custersin)?
Answer: Its value is 46%.

Question: What about the volume [2] of the same substance?
Answer: Its volume is 649.2.

Question: And the weight [2]?
Answer: Its weight is 19.8.

Question: And the “Δ % (weight)” value [2]?
Answer: The value was 5.3%.

Question: What about the Δ volume [2] of the same substance?
Answer: The Δ volume was 503.8.

Question: What about the Δ weight [2] of the same substance?
Answer: The Δ weight was 1.0.

Question: And the “% of baseline (weight)” value [3]?
Answer: Its value is 105.6% and 110.6% and 103.7% and 103.8% and 102.1% and 113.0% and 103.2% and 101.2%.

Question: And the volume [3]?
Answer: The volume was 495 and 354 and 689 and 763 and 717 and 1076 and 483 and 593 and 671.

Question: And the weight [3]?
Answer: The weight was 18.73 and 18.93 and 21.36 and 20.43 and 19.03 and 20.83 and 20.79 and 18.98 and 19.13.

Question: And the “Δ % (weight)” value [3]?
Answer: The value was 5.6% and 10.6% and 3.7% and 3.8% and 2.1% and 13.0% and 4.2% and 3.2% and 1.2%.

Question: What about the Δ volume [3] of the same substance?
Answer: The Δ volume was 371.9 and 229.1 and 550.6 and 621.8 and 571.9 and 925.7 and 329.0 and 431.2 and 502.7.

Question: What about the Δ weight [3] of the same substance?
Answer: Its Δ weight is 1.0 and 1.8 and 0.8 (3×) and 0.4 and 2.4 and 0.6 and 0.2.

Question: What about the volume [4] of the same substance?
Answer: Its volume is 812.8.

Question: And the weight [4]?
Answer: Its weight is 19.8.

Question: And the “Δ % (weight)” value [4]?
Answer: The value was 5.3%.

Question: And the Δ volume [4]?
Answer: Its Δ volume is 667.3.

Question: What about the Δ weight [4] of the same substance?
Answer: The Δ weight was 1.0.

Question: And the “% of baseline (weight)” value [5]?
Answer: The value was 103.8% and 109.8% and 102.5% and 102.7% and 114.2% and 100.4%.

Question: And the volume [5]?
Answer: Its volume is 687 and 392 and 817 and 923 and 1031 and 1324 and 603 and 734 and 804.

Question: What about the weight [5] of the same substance?
Answer: Its weight is 18.40 and 18.79 and 21.71 and 20.17 and 19.13 and 21.06 and 20.78 and 18.47 and 19.87.

Question: What about the “Δ % (weight)” value [5] of the same substance?
Answer: The value was 3.8% and 9.8% and 5.4% and 2.5% and 2.7% and 14.2% and 4.2% and 0.4% and 5.1%.

Question: And the Δ volume [5]?
Answer: Its Δ volume is 563.6 and 267.5 and 678.0 and 781.6 and 885.6 and 1173.4 and 448.7 and 571.8 and 635.5.

Question: And the Δ weight [5]?
Answer: The Δ weight was 0.7 and 1.7 and 1.1 and 0.5 (2×) and 2.6 and 0.8 and 0.1 and 1.0.

Question: And the “% of baseline (weight)” value [6]?
Answer: The value was 105.6% and 110.0% and 108.4%.

Question: And the volume [6]?
Answer: The volume was 797 and 560 and 1319.

Question: What about the weight [6] of the same substance?
Answer: The weight was 18.72 and 18.84 and 22.31.

Question: And the “Δ % (weight)” value [6]?
Answer: Its value is 5.6% and 10.0% and 8.4%.

Question: And the Δ volume [6]?
Answer: The Δ volume was 673.0 and 435.6 and 1180.5.

Question: And the Δ weight [6]?
Answer: Its Δ weight is 1.0 and 1.7 (2×).

Question: And the “% of baseline (weight)” value [7]?
Answer: Its value is 112.4% and 108.7%.

Question: And the volume [7]?
Answer: The volume was 1127 and 848 and 2000.

Question: And the weight [7]?
Answer: Its weight is 18.57 and 19.25 and 22.39.

Question: What about the “Δ % (weight)” value [7] of the same substance?
Answer: The value was 4.7% and 12.4% and 8.7%.

Question: What about the Δ volume [7] of the same substance?
Answer: The Δ volume was 1003.4 and 723.2 and 1861.0.

Question: And the Δ weight [7]?
Answer: The Δ weight was 0.8 and 2.1 and 1.8.

Question: What about the weight [8] of the same substance?
Answer: Its weight is 20.3.

Question: And the Δ weight [8]?
Answer: The Δ weight was 1.5.

Question: What about the volume [9] of the same substance?
Answer: Its volume is 1278.9.

Question: What about the Δ volume [9] of the same substance?
Answer: Its Δ volume is 1133.5.

Question: What about the “% of baseline” value [8] of the same substance?
Answer: Its value is 108.0%.

Question: And the Δ % [8]?
Answer: Its Δ % is 8.0%.

Question: And the weight [10]?
Answer: The weight was 20.77 and 19.53 and 21.42 and 21.45 and 19.51 and 20.43.

Question: What about the Δ weight [10] of the same substance?
Answer: The Δ weight was 1.1 (2×) and 0.9 and 3.0 and 1.5 (2×).

Question: And the volume [11]?
Answer: The volume was 1418 and 1693 and 1970 and 1060 and 1218 and 1475.

Question: And the Δ volume [11]?
Answer: The Δ volume was 1277.2 and 1547.4 and 1819.3 and 905.2 and 1056.5 and 1306.4.

Question: What about the “% of baseline” value [10] of the same substance?
Answer: Its value is 116.2% and 107.5% and 108.1%.

Question: And the Δ % [10]?
Answer: Its Δ % is 5.5% and 4.8% and 16.2% and 7.5% and 6.0% and 8.1%.

Question: What about the “Day 41 % of baseline (weight)” value [12] of the same substance?
Answer: The value was 101.5%.

Question: And the “Day 41 volume” value [12]?
Answer: Its value is 395.4.

Question: And the “Day 41 weight” value [12]?
Answer: Its value is 19.1.

Question: What about the “Day 45 volume” value [12] of the same substance?
Answer: The value was 527.3.

Question: And the “Day 45 weight” value [12]?
Answer: Its value is 19.9.

Question: And the “Day 41 Δ % (weight)” value [13]?
Answer: The value was 1.5%.

Question: What about the “Day 41 Δ volume” value [13] of the same substance?
Answer: The value was 249.9.

Question: What about the “Day 41 Δ weight” value [13] of the same substance?
Answer: Its value is 0.3.

Question: And the “Day 45 Δ % (weight)” value [13]?
Answer: Its value is 5.6%.

Question: And the “Day 45 Δ volume” value [13]?
Answer: Its value is 381.9.

Question: And the “Day 45 Δ weight” value [13]?
Answer: Its value is 1.0.

Question: And the “Day 20 volume” value [14]?
Answer: Its value is 142.8.

Question: And the “Day 20 weight” value [14]?
Answer: Its value is 18.5.

Question: What about the “Day 27 % of baseline (weight)” value [14] of the same substance?
Answer: Its value is 102.6%.
